For data set [1], the target named is T1, Human rhinovirus (HRV) type 14 3C protease (Human rhinovirus 14, UniProt P03303).
T1 construct: Assay using active recombinant Human rhinovirus (HRV) type 14 3C protease
Description: HRV type 14 3C protease assay. The following applies: increasing dose. The class given is biochemical. The text has this:
FIG. 7: Assay using active recombinant Human rhinovirus (HRV) type 14 3C protease Cysteine in absence (neg) or presence (increasing dose) of SVC_01. HRV is a protease with preference for non-aromatic residues at P1′. The optimum recognition site for Human rhinovirus (HRV) type 14 3C protease is LEVLFQ/GP, with a glycine at the P1′ position.
Below, the criteria for selection are detailed: • Protease with documented carboxypeptidase activity towards alpha tubulin. Carboxypeptidase A hydrolyzes peptide bonds of C-terminal residues with aromatic or aliphatic side-chains (FIG. 6). • Cysteine protease with preference for non-aromatic residues at P1′. The optimum recognition site for Human rhinovirus (HRV) type 14 3C protease is LEVLFQ/GP, with a glycine at the P1′ position (FIG. 7). • Cysteine protease with preference for aromatic residues at P1′ site. Alike VASH, cathepsin B prefers an aromatic residue at the P1′ position. This is considered to be our best control for specificity (FIG. 8)

Data set [2] has as its system primary cardiomyocytes isolated from healthy Sprague Dawley rats. Description: Unloaded shortening contractility of healthy isolated cardiomyocytes. The note with it: healthy rat cardiomyocytes. The class given is cell-based. As to the method: FIG. 13: Dose-dependent modest improvement in contraction and relaxation kinetics during unloaded shortening upon VASH inhibition in primary cardiomyocytes isolated from healthy Sprague Dawley rats. A) Resting sarcomere length, B) fractional shortening, C) contraction time and D) relaxation time in healthy isolated rat cardiomyocytes. n=50-60 myocytes per group from N=3 Sprague Dawley rats. One-way ANOVA.
Contractility was measured in a custom-fabricated cell chamber (IonOptix) mounted on an LSM Zeiss 880 inverted confocal microscope using either a 40 or 63× oil 1.4 numerical aperture objective and transmitted light camera (IonOptix MyoCam-S). Experiments were conducted at room temperature and field stimulation was provided at 1.0 Hz with a cell stimulator (MyoPacer, IonOptix). After 10-30 seconds of pacing to achieve steady state, five traces were recorded and analyzed. Sarcomere length was measured optically by Fourier transform analysis (IonWizard, IonOptix).

The subject of data set [3] is primary cardiomyocytes isolated from ZSF1-Lean or ZSF1 Obese rats. Description: Nanoindentation transverse stiffness. The class given is cell-based, rat. The text has this:
FIG. 17: Reduced transverse stiffness upon VASH inhibition or TTL overexpression in primary cardiomyocytes isolated from ZSF1-Lean or ZSF1 Obese rats. A) Stiffness (elastic modulus) plotted as a function of nanoindentation velocity in ZSF1-Lean and B) ZSF1-Obese myocytes. C) Quantification of Emin (elastic stiffness), Emax (stiffness at maximal velocity of indentation) and D) DeltaE (indicator of viscoelasticity) in ZSF1-Lean and Obese cardiomyocytes.
Mechanical properties at the microscopic scale were measured using nano-indentation (Piuma; Optics11, Amsterdam, The Netherlands) equipped with a dynamic mechanical analysis package (DMA). Freshly isolated cardiomyocytes were attached to glass-bottom dishes coated with MyoTak (IonOptix) in NT solution at 1 mM Ca2+. A spherical indentation probe with a radius of 4.5 μm and a stiffness of 0.1 N/m was used to indent the myocytes to a depth of 1-2 μm and the probe was then oscillated in a sinusoidal pattern at a frequency of 0.05, 0.1, 0.5, 1, 2, 5, 10, 20 and 50 Hz and an amplitude of 1 μm. The Piuma Data Viewer version 2.0 was used to convert DMA indentation depth and cantilever deflection into E′ and E″ and the magnitude of the elastic modulus was determined by E^2=E′^2+E″^2 A Poisson's ratio (n) of 0.5 was assumed and the average of E in each experimental condition was determined as a function of indentation speed. […]

A further data set has as its system Sprague Dawley rats. Put plainly: Myocardial tubulin detyrosination after IV injection, western blot. The class given is in vivo, rat. The following applies: single injection IV, 8 weeks old Sprague Dawley rats. The text has this: B) Quantification of detyrosination levels (D1/alpha-tubulin ratio) in vehicle (n=4) and VASHi-treated rats (n=3).
For efficacy testing we presented SVC_01 to primary cardiomyocytes isolated from Sprague Dawley rats. […] Next, we performed functional studies by measuring key cardiomyocytes parameters including resting, fractional shortening, contraction time and relaxation time. […] The ZSF1 rat model is a hybrid rat obtained by a cross between a ZDF female and an SHHF male rat. This model is an established HFpEF rat model. Obese ZSF1 (O—ZSF1) hybrid rats are compound heterozygote with two different mutated alleles coding defective leptin receptor, resulting in loss of the receptor function. Thus, these animals have increased food intake and develop pronounced features of obesity, diabetes, and resultant HFpEF. […] We performed a western blot analysis from myocardial tissue prepared from Wistar Kyoto (WKY), ZSF1 lean and ZSF1 obese rats (FIG. 14). In line with previously published data of the role of microtubule densification and tubulin detyrosination, we found an increase in both total tubulin as well as detyrosinated tubulin in myocardial tissue of ZSF1-obese rats compared to the lean and WKY controls. […] Similar results were observed by assessment of the transverse stiffness. […]
(In general: A western blot detects proteins with antibodies after separation by electrophoresis.)

T1 sequence (P03303 1538-1719): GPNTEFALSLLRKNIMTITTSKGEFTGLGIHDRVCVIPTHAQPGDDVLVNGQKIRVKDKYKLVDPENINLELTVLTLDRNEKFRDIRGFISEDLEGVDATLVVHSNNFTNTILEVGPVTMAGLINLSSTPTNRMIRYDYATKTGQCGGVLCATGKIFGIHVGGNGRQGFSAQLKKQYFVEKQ
Description for human cells: FIG. 9: Cell viability assay comparing microtubule binding drugs (Parthenolide, Taxol) to SVC_01 exposure on human cells. The MTT assay is used to measure cellular metabolic activity as an indicator of cell viability, proliferation and cytotoxicity. This colorimetric assay is based on the reduction of a yellow tetrazolium salt (3-(4,5-dimethylthiazol-2-yl)-2,5-diphenyltetrazolium bromide or MTT) to purple formazan crystals by metabolically active cells.
Next, we performed safety pharmacology experiments and head-to-head compared the cellular toxicity of SVCs on human cells.

`O=C(O)CCC[C@H](NC(=O)[C@H]1O[C@@H]1C(=O)C[C@@H](Cc1ccc(OCc2ccccc2)cc1)C(=O)O)C(=O)NCCc1ccccc1` [SVC_01]: in data set [1], the “inhibition of HRV type 14 3C protease” value is reported as “does not reduce activity”. In data set [2], the “contraction and relaxation times” value is “dose-dependent and statistically significant improvements”. For the same molecule, the “cell viability / proliferation (MTT)” value in the data set with human cells was “does not impact cell proliferation”. Besides, in data set [3], the transverse viscoelastic stiffness entry was “viscoelastic stiffness is reduced”.
With `CCOC(=O)[C@H](Cc1ccc(OCC)cc1)NC(=O)[C@H]1O[C@@H]1C(=O)N[C@@H](Cc1ccc(OCC)cc1)C(=O)OCC` [SVC_02], in the data set with Sprague Dawley rats, the “detyrosinated tubulin in myocardial tissue” value was “efficient reduction in detyrosinated tubulin”.

For the origin of these results see patent US20260199284A1, “SPECIFIC VASH COMPOUNDS (SVC) INHIBITORS FOR HEART DISEASES” (MT ACT, priority 2023, published 2026).
